Target: T1, MAGL (Homo sapiens, UniProt Q99685)
T1 sequence (Q99685 1-303): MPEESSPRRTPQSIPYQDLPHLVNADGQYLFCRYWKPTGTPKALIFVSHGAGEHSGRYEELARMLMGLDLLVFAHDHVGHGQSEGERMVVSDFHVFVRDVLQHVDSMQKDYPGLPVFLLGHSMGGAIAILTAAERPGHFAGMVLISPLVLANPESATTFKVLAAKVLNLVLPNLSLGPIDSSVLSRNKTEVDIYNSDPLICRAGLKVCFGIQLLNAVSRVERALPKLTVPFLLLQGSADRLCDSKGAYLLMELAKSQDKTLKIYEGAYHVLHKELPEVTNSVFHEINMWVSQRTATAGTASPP
Assay: MAGL inhibition, 2-AG assay (hydrolysis of 2-arachidonoylglycerol, arachidonic acid by mass spectrometry)
Type: biochemical
Settings: 2-AG assay (footnote [b])
Method: Alternatively, compounds were profiled for MAGL inhibitory activity by determining the enzymatic activity by following the hydrolysis of the natural substrate 2-arachidonoylglycerol (2-AG) resulting in arachidonic acid, which can be followed by mass spectrometry. This assay is hereinafter abbreviated “2-AG assay”.
The 2-AG assay was carried out in 384 well assay plates (PP, Greiner Cat #784201) in a total volume of 20 μL. Compound dilutions were made in 100% DMSO (VWR Chemicals 23500.297) in a polypropylene plate in 3-fold dilution steps to give a final concentration range in the assay from 12.5 μM to […]. 0.25 μL compound dilutions (100% DMSO) were added to 9 μL MAGL in assay buffer (50 mM TRIS (GIBCO, 15567-027), 1 mM EDTA (Fluka, 03690-100 mL), 0.01% (v/v) Tween. After shaking, the plate was incubated for 15 min at RT. To start the reaction, 10 μL 2-arachidonoylglycerol in assay buffer was added. The final concentrations in the assay was […] and 8 μM 2-arachidonoylglyerol. After shaking and 30 min incubation at RT, the reaction was quenched by the addition of 40 μL of ACN containing 4 μM of d8-arachidonic acid. The amount of arachidonic acid was traced by an online SPE system (Agilent Rapidfire) coupled to a triple quadrupole mass spectrometer (Agilent 6460). A C18 SPE cartridge (G9205A) was used in an ACN/water liquid setup. The mass spectrometer was operated in negative electrospray mode following the mass transitions 303.1→259.1 for arachidonic acid and 311.1→267.0 for d8-arachidonic acid. The activity of the compounds was calculated based on the ratio of intensities [arachidonic acid/d8-arachidonic acid].

IC50	Structure (SMILES)
49 nM	CC(OC1CN(C(=O)N2CC[C@@H]3OCC(=O)N[C@@H]3C2)C1)c1ccc(C(F)(F)F)cc1 (single isomer, unassigned) [Example 114, (4aR,8aS)-6-(3-(1-(R or S)-(4-(Trifluoromethyl)phenyl)ethoxy)azetidine-1-carbonyl)hexahydro-2H-pyrido[4,3-b][1,4]oxazin-3(4H)-one]
79 nM	CC(OC1CN(C(=O)N2CC[C@@H]3OCC(=O)N[C@@H]3C2)C1)c1ccc(C(F)(F)F)cc1 (single isomer, unassigned) [Example 115, (4aR,8aS)-6-(3-(1-(S or R)-4-(Trifluoromethyl)phenyl)ethoxy)azetidine-1-carbonyl)hexahydro-2H-pyrido[4,3-b][1,4]oxazin-3(4H)-one]
92 nM	CC(OC1CN(C(=O)N2CC[C@@H]3OCC(=O)N[C@@H]3C2)C1)c1ccc(F)cc1Cl (single isomer, unassigned) [Example 116, (4aR,8aS)-6-[3-(S or R)-]1-(2-Chloro-4-fluoro-phenyl)ethoxy]azetidine-1-carbonyl]-4,4a,5,7,8,8a-hexahydropyrido[4,3-b][1,4]oxazin-3-one]
30 nM	CC(OC1CN(C(=O)N2CC[C@@H]3OCC(=O)N[C@@H]3C2)C1)c1ccc(F)cc1Cl (single isomer, unassigned) [Example 117, (4aR,8aS)-6-[3-(R or S)-[1-(2-Chloro-4-fluoro-phenyl)ethoxy]azetidine-1-carbonyl]-4,4a,5,7,8,8a-hexahydropyrido[4,3-b][1,4]oxazin-3-one]
25 nM	COc1ccc(C(c2ccccn2)C2CCN(C(=O)N3CC[C@@H]4OCC(=O)N[C@@H]4C3)CC2)cc1OC (single isomer, unassigned) [Example 118, (4aR,8aS)-6-[4-[(R or S)-(3,4-dimethoxyphenyl)-(2-pyridyl)methyl]piperidine-1-carbonyl]-4,4a,5,7,8,8a-hexahydropyrido[4,3-b][1,4]oxazin-3-one]
17 nM	COc1ccc(C(c2ccccn2)C2CCN(C(=O)N3CC[C@@H]4OCC(=O)N[C@@H]4C3)CC2)cc1OC (single isomer, unassigned) [Example 119, (4aR,8aS)-6-[4-[(S or R)-(3,4-dimethoxyphenyl)-(2-pyridyl)methyl]piperidine-1-carbonyl]-4,4a,5,7,8,8a-hexahydropyrido[4,3-b][1,4]oxazin-3-one]
7 nM	COc1ccc(C(c2cccnc2)C2CCN(C(=O)N3CC[C@@H]4OCC(=O)N[C@@H]4C3)CC2)cc1OC (single isomer, unassigned) [Example 135, (4aR,8aS)-6-[4-[(R or S)-(3,4-Dimethoxyphenyl)-(3-pyridyl)methyl]piperidine-1-carbonyl]-4,4a,5,7,8,8a-hexahydropyrido[4,3-b][1,4]oxazin-3-one]
14 nM	COc1ccc(C(c2cccnc2)C2CCN(C(=O)N3CC[C@@H]4OCC(=O)N[C@@H]4C3)CC2)cc1OC (single isomer, unassigned) [Example 136, (4aR,8aS)-6-[4-[(S or R)-(3,4-dimethoxyphenyl)-(3-pyridyl)methyl]piperidine-1-carbonyl]-4,4a,5,7,8,8a-hexahydropyrido[4,3-b][1,4]oxazin-3-one]
51 nM	COc1ccc(C(c2ccncc2)C2CCN(C(=O)N3CC[C@@H]4OCC(=O)N[C@@H]4C3)CC2)cc1OC (single isomer, unassigned) [Example 149, (4aR,8aS)-6-[4-[(R or S)-(3,4-Dimethoxyphenyl)-(4-pyridyl)methyl]piperidine-1-carbonyl]-4,4a,5,7,8,8a-hexahydropyrido[4,3-b][1,4]oxazin-3-one]
8 nM	COc1ccc(C(c2ccncc2)C2CCN(C(=O)N3CC[C@@H]4OCC(=O)N[C@@H]4C3)CC2)cc1OC (single isomer, unassigned) [Example 150, (4aR,8aS)-6-[4-[(S or R)-(3,4-Dimethoxyphenyl)-(4-pyridyl)methyl]piperidine-1-carbonyl]-4,4a,5,7,8,8a-hexahydropyrido[4,3-b][1,4]oxazin-3-one]
1 nM	CC(OC1CN(c2ccc(C3CN(C(=O)N4CC[C@@H]5OCC(=O)N[C@@H]5C4)C3)cc2)C1)C(F)(F)F (single isomer, unassigned) [Example 160, (4aR,8aS)-6-[3-[4-[3-[(1S or 1R)-2,2,2-Trifluoro-1-methyl-ethoxy]azetidin-1-yl]phenyl]azetidine-1-carbonyl]-4,4a,5,7,8,8a-hexahydropyrido[4,3-b][1,4]oxazin-3-one]
4 nM	CC(OC1CN(c2ccc(C3CN(C(=O)N4CC[C@@H]5OCC(=O)N[C@@H]5C4)C3)cc2)C1)C(F)(F)F (single isomer, unassigned) [Example 161, (4aR,8aS)-6-[3-[4-[3-[(1R or 1S)-2,2,2-Trifluoro-1-methyl-ethoxy]azetidin-1-yl]phenyl]azetidine-1-carbonyl]-4,4a,5,7,8,8a-hexahydropyrido[4,3-b][1,4]oxazin-3-one]
115 nM	CS(=O)(=O)c1cccc(C(c2cccnc2)C2CCN(C(=O)N3CC[C@@H]4OCC(=O)N[C@@H]4C3)CC2)c1 (single isomer, unassigned) [Example 175, (4aR,8aS)-6-[4-[(R or S)-(3-methylsulfonylphenyl)-(3-pyridyl)methyl]piperidine-1-carbonyl]-4,4a,5,7,8,8a-hexahydropyrido[4,3-b][1,4]oxazin-3-one]
170 nM	CS(=O)(=O)c1cccc(C(c2cccnc2)C2CCN(C(=O)N3CC[C@@H]4OCC(=O)N[C@@H]4C3)CC2)c1 (single isomer, unassigned) [Example 176, (4aR,8aS)-6-[4-[(R or S)-(3-methylsulfonylphenyl)-(3-pyridyl)methyl]piperidine-1-carbonyl]-4,4a,5,7,8,8a-hexahydropyrido[4,3-b][1,4]oxazin-3-one]
428 nM	CS(=O)(=O)c1cccc(C(c2ccncc2)C2CCN(C(=O)N3CC[C@@H]4OCC(=O)N[C@@H]4C3)CC2)c1 (single isomer, unassigned) [Example 177, (4aR,8aS)-6-[4-[(R or S)-(3-methylsulfonylphenyl)-(4-pyridyl)methyl]piperidine-1-carbonyl]-4,4a,5,7,8,8a-hexahydropyrido[4,3-b][1,4]oxazin-3-one]
131 nM	CS(=O)(=O)c1cccc(C(c2ccncc2)C2CCN(C(=O)N3CC[C@@H]4OCC(=O)N[C@@H]4C3)CC2)c1 (single isomer, unassigned) [Example 178, (4aR,8aS)-6-[4-[(S or R)-(3-methylsulfonylphenyl)-(4-pyridyl)methyl]piperidine-1-carbonyl]-4,4a,5,7,8,8a-hexahydropyrido[4,3-b][1,4]oxazin-3-one]
68 nM	CS(=O)(=O)c1cccc(C(c2ccccn2)C2CCN(C(=O)N3CC[C@@H]4OCC(=O)N[C@@H]4C3)CC2)c1 (single isomer, unassigned) [Example 189, (4aR,8aS)-6-[4-[(R or S)-(3-methylsulfonylphenyl)-(2-pyridyl)methyl]piperidine-1-carbonyl]-4,4a,5,7,8,8a-hexahydropyrido[4,3-b][1,4]oxazin-3-one]
261 nM	CS(=O)(=O)c1cccc(C(c2ccccn2)C2CCN(C(=O)N3CC[C@@H]4OCC(=O)N[C@@H]4C3)CC2)c1 (single isomer, unassigned) [Example 190, (4aR,8aS)-6-[4-[(S or R)-(3-methylsulfonylphenyl)-(2-pyridyl)methyl]piperidine-1-carbonyl]-4,4a,5,7,8,8a-hexahydropyrido[4,3-b][1,4]oxazin-3-one]
0.1 nM	O=C1CO[C@H]2CCN(C(=O)N3CC(c4ccc(N5CCCC5C(F)(F)F)cc4)C3)C[C@H]2N1 (single isomer, unassigned) [Example 194]
0.4 nM	O=C1CO[C@H]2CCN(C(=O)N3CC(c4ccc(N5CCCC5C(F)(F)F)cc4)C3)C[C@H]2N1 (single isomer, unassigned) [Example 195]
0.5 nM	O=C1CO[C@H]2CCN(C(=O)N3CC(c4ccc(N5CCC(C(F)(F)F)C5)cc4)C3)C[C@H]2N1 (single isomer, unassigned) [Example 197, (4aR,8aS)-6-(3-(4-((R or S)-3-(Trifluoromethyl)pyrrolidin-1-yl)phenyl)azetidine-1-carbonyl)hexahydro-2H-pyrido[4,3-b][1,4]oxazin-3(4H)-one]

Source: patent US20230117324A1, “OXAZINE MONOACYLGLYCEROL LIPASE (MAGL) INHIBITORS” (Hoffmann-La Roche Inc., priority 2018, published 2023)
